This note sets out measurements from patent US20250026743A1, “HETEROARYL-LINKED ANALOGS AS MGLU5 NEGATIVE ALLOSTERIC MODULATORS AND METHODS OF MAKING AND USING THE SAME” (Vanderbilt University, priority 2021, published 2025).

The target in the experiment is T1, hmGlu5 (Homo sapiens, UniProt P41594).
T1 construct: expressed in transfected cells; host or cells: HEK 293A
Briefly: mGlu5 Ca2+ flux assay in HEK 293A cells (negative allosteric modulation of glutamate EC80 response). The class given is cell-based. Conditions: for remaining activity at 30 µM: HEK293-A, read-out: hmGlu5 NAM Emin (%); for IC50: HEK 293A cells, Ca2+ flux, glutamate EC80, >10,000 = decrease without plateau, read-out: hmGlu5 NAM IC50. The method, then:
HEK 293A cells stably expressing either rat or human mGlu5 were plated in black-walled, clear-bottomed, poly-D-lysine coated 384-well plates in 20 μL of assay medium (DMEM containing 10% dialyzed FBS, 20 mM HEPES, 100 units/mL penicillin/streptomycin plus 250 ng/mL Fungizone, and 1 mM sodium pyruvate) at a density of 20K cells/well. The cells were grown overnight at 37° C. in the presence of 5% CO2. The next day, medium was removed and the cells incubated with 20 μL of 2.3 μM Fluo-4, AM prepared as a 2.3 mM stock in DMSO and mixed in a 1:1 ratio with 10% (w/v) pluronic acid F-127 and diluted in assay buffer (Hank's balanced salt solution, 20 mM HEPES, and 2.5 mM probenecid) for 45 minutes at 37° C. Dye was removed, 20 μL of assay buffer was added, and the plate was incubated for 5 minutes at room temperature.
Ca^2+ flux was measured using the Functional Drug Screening System (FDSS7000, Hamamatsu, Japan). After establishment of a fluorescence baseline for about 3 seconds, the compounds of the present invention were added to the cells, and the response in cells was measured. 2.3 minutes later an EC20 concentration of the mGlu5 receptor agonist glutamate was added to the cells, and the response of the cells was measured for 1.9 minutes; an EC80 concentration of agonist was added and readings taken for an additional 1.7 minutes. All test compounds were dissolved and diluted to a concentration of 10 mM in 100% DMSO. Compounds were then serially diluted 1:3 in DMSO into 10 point concentration response curves, transferred to daughter plates, and further diluted into assay buffer to a 2× stock. Calcium fluorescence measures were recorded as fold over basal fluorescence; raw data was then normalized to the maximal response to glutamate. Antagonism of the agonist response of the mGlu5 receptor in the present invention was observed as a decrease in response to nearly maximal concentrations of glutamate in the presence of compound compared to the response to glutamate in the absence of compound.
The raw data file containing all time points was used as the data source in the analysis template. This was saved by the FDSS as a tab-delimited text file. Data were normalized using a static ratio function (F/F0) for each measurement of the total 360 values per well divided by each well's initial value. Data were then reduced to peak amplitudes (Max−Initial Min) using a time range that starts approximately 3 seconds prior to the glutamate EC20/EC80 addition and continues for approximately 90-120 seconds. This is sufficient time to capture the peak amplitude of the cellular calcium response. Individual amplitudes were expressed as % EMax by multiplying each amplitude by 100 and then dividing the product by the mean of the amplitudes derived from the glutamate ECMax-treated wells. IC50 values for test compounds were generated by fitting the normalized values versus the log of the test compound concentration (in mol/L) using a 4 parameter logistic equation where none of the parameters were fixed. Each of the three values collected at each concentration of test compound were weighted evenly.
For NAMs with a CRC that plateaus above 10% Glu Max, the IC50 values are reported, the compound is designated a “partial NAM” and the % Glu Max is reported. […] Compounds without measurable activity are designated as “>30,000 nM” since the top concentration of compound tested in the assay is 30 μM. […]
(Calcium flux is commonly read through the fluorescence of an indicator in the cells.)

The structures appear in SMILES notation. Read-outs that look alike come from different tables or passages of the source.

T1 sequence (P41594 21-1212): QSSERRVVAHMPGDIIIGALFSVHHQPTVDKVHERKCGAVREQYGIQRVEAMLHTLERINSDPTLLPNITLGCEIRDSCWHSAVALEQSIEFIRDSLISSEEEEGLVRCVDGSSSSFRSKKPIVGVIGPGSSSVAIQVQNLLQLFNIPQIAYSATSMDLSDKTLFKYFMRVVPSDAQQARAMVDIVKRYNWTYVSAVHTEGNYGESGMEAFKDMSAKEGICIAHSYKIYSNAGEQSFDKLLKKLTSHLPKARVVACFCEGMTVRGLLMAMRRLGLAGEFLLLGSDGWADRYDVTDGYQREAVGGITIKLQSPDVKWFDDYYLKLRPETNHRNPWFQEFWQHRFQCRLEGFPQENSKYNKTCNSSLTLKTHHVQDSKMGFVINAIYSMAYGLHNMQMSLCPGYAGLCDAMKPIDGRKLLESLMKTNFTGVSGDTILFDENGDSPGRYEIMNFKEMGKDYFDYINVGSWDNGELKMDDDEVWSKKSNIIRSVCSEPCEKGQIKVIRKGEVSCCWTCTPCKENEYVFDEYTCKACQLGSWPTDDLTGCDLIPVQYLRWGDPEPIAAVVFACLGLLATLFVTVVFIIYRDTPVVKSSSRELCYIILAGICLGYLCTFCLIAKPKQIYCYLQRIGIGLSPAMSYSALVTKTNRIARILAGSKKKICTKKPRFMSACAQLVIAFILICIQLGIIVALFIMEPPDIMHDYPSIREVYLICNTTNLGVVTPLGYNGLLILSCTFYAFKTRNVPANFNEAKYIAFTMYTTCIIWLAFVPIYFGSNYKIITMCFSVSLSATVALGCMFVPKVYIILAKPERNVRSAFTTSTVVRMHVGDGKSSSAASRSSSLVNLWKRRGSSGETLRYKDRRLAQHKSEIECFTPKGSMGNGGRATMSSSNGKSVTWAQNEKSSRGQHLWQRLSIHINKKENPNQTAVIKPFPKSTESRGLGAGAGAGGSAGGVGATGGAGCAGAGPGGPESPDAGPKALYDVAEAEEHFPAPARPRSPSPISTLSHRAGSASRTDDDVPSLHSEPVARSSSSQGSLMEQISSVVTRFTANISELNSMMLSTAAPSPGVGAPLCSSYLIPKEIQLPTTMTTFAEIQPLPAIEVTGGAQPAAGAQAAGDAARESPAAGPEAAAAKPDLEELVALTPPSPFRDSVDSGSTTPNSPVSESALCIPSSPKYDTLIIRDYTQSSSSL

One may read the IC50 as the concentration that inhibits the measured activity by half. Turning to `Cc1cc(-c2cncc(F)c2)cc(-c2noc(-c3ccc(F)cn3)n2)n1` [Compound 55, 3-(5-fluoro-6′-methyl-[3,4′-bipyridin]-2′-yl)-5-(5-fluoropyridin-2-yl)-1,2,4-oxadiazole], the concentration for half-maximal inhibition (IC50) was determined as 190 nM. In addition, under “% Glu max at 30 μM”, the remaining activity at 30 µM worked out at 2%.
For the compound `Cc1nc(-c2nc(-c3cscn3)no2)cc(-c2cncc(F)c2)c1F` [Compound 53, 5-(5,5′-difluoro-6′-methyl-[3,4′-bipyridin]-2′-yl)-3-(thiazol-4-yl)-1,2,4-oxadiazole], the concentration for half-maximal inhibition (IC50) amounted to 481 nM. The remaining activity at 30 µM (% Glu max at 30 μM) was 23%.
In the same order, the values of `Cc1ccncc1-c1cc(-c2noc(-c3cscn3)n2)nc(C)c1F` [Compound 27, 3-(5′-fluoro-4,6′-dimethyl-[3,4′-bipyridin]-2′-yl)-5-(thiazol-4-yl)-1,2,4-oxadiazole] are 308 nM and 2%.
Regarding `Cc1nc(-c2noc(-c3ccc(F)cn3)n2)cc(-c2cncc(F)c2)c1F` [Compound 6, 3-(5,5′-difluoro-6′-methyl-[3,4′-bipyridin]-2′-yl)-5-(5-fluoropyridin-2-yl)-1,2,4-oxadiazole], the half-inhibitory concentration (IC50) amounted to 59 nM. Moreover, the remaining activity at 30 µM (% Glu max at 30 μM) worked out at 2%.
`COc1ccnc(-c2nc(-c3cc(-c4cnccc4C)c(F)c(C)n3)no2)c1` [Compound 25, 3-(5′-fluoro-4,6′-dimethyl-[3,4′-bipyridin]-2′-yl)-5-(4-methoxypyridin-2-yl)-1,2,4-oxadiazole]: the IC50 was 3380 nM. For the same compound, the remaining activity at 30 µM (% Glu max at 30 μM) is 12%.
As for `Cc1ccncc1-c1cc(-c2noc(-c3cccc(Cl)n3)n2)nc(C)c1F` [Compound 21, 5-(6-chloropyridin-2-yl)-3-(5′-fluoro-4,6′-dimethyl-[3,4′-bipyridin]-2′-yl)-1,2,4-oxadiazole], the half-inhibitory concentration (IC50) is 493 nM. In addition, the remaining activity at 30 µM (% Glu max at 30 μM) was found to be 4%.
With `Cc1nc(-c2nnc(-c3ccccn3)o2)cc(-c2cncc(F)c2)c1F` [Compound 79, 2-(5,5′-difluoro-6′-methyl-[3,4′-bipyridin]-2′-yl)-5-(pyridin-2-yl)-1,3,4-oxadiazole], the remaining activity at 30 µM was 2% and the IC50 came out at 673 nM.
For the compound `Cc1nc(-c2n[nH]c(-c3ccc(F)cc3)n2)cc(-c2cncc(F)c2)c1F` [Compound 99, 3′,5-difluoro-6′-(5-(4-fluorophenyl)-1H-1,2,4-triazol-3-yl)-2′-methyl-3,4′-bipyridine], the IC50 came out at 47 nM. Also, the remaining activity at 30 µM (% Glu max at 30 μM) worked out at 2%.
As to `Cc1cc(CC2CCOCC2)cc(-c2noc(-c3ccc(F)cn3)n2)n1` [Compound 71, 5-(5-fluoropyridin-2-yl)-3-(6-methyl-4-((tetrahydro-2H-pyran-4-yl)methyl)pyridin-2-yl)-1,2,4-oxadiazole], the IC50 was over 10000 nM. In addition, under “% Glu max at 30 μM”, the remaining activity at 30 µM came to 45%.
Turning to `Cc1nc(-c2nnc(-c3ccc(F)cn3)o2)cc(-c2cncc(F)c2)c1F` [Compound 43, 2-(5,5′-difluoro-6′-methyl-[3,4′-bipyridin]-2′-yl)-5-(5-fluoropyridin-2-yl)-1,3,4-oxadiazole], the remaining activity at 30 µM came out at 2% and the half-inhibitory concentration (IC50) turned out to be 179 nM.
As to `COc1c(-c2cncc(F)c2)cc(-c2n[nH]c(-c3ccccc3F)n2)nc1C` [Compound 100, 5-fluoro-6′-(5-(2-fluorophenyl)-1H-1,2,4-triazol-3-yl)-3′-methoxy-2′-methyl-3,4′-bipyridine], the IC50 was 300 nM. Besides, the remaining activity at 30 µM (% Glu max at 30 μM) is 2%.
As for `Cc1nc(-c2noc(-c3ccncc3)n2)cc(-c2cncc(F)c2)c1F` [Compound 51, 3-(5,5′-difluoro-6′-methyl-[3,4′-bipyridin]-2′-yl)-5-(pyridin-4-yl)-1,2,4-oxadiazole], the IC50 was determined as 1070 nM. Also, under “% Glu max at 30 μM”, the remaining activity at 30 µM came to 12%.
In the case of `Cc1ccc(-c2nc(-c3cc(-c4cnccc4C)c(F)c(C)n3)no2)nc1` [Compound 64, 3-(5′-fluoro-4,6′-dimethyl-[3,4′-bipyridin]-2′-yl)-5-(5-methylpyridin-2-yl)-1,2,4-oxadiazole], the half-maximal inhibitory concentration (IC50) was over 10000 nM. For the same compound, the remaining activity at 30 µM (% Glu max at 30 μM) was 39%.
As for `Cc1nc(-c2noc(-c3cccc(Cl)c3)n2)cc(-c2cncc(F)c2)c1F` [Compound 44, 5-(3-chlorophenyl)-3-(5,5′-difluoro-6′-methyl-[3,4′-bipyridin]-2′-yl)-1,2,4-oxadiazole], the remaining activity at 30 µM was found to be 34% and the IC50 is 5800 nM.
Turning to `Cc1ccc(-c2nnc(-c3cc(-c4cncc(F)c4)c(F)c(C)n3)o2)nc1` [Compound 57, 2-(5,5′-difluoro-6′-methyl-[3,4′-bipyridin]-2′-yl)-5-(5-methylpyridin-2-yl)-1,3,4-oxadiazole], the remaining activity at 30 µM was 4% and the 50% inhibitory concentration (IC50) amounted to 1080 nM.
Take `Cc1nc(-c2nnc(-c3ccc(F)cn3)o2)cc(-c2cnn(C(F)F)c2)c1F` [Compound 74, 2-(4-(1-(difluoromethyl)-1H-pyrazol-4-yl)-5-fluoro-6-methylpyridin-2-yl)-5-(5-fluoropyridin-2-yl)-1,3,4-oxadiazole]: the IC50 was 148 nM. Also, the remaining activity at 30 µM (% Glu max at 30 μM) was found to be 2%.
With `Cc1ccncc1-c1cc(-c2noc(-c3ccc(F)cn3)n2)ncc1F` [Compound 1, 3-(5′-fluoro-4-methyl-[3,4′-bipyridin]-2′-yl)-5-(5-fluoropyridin-2-yl)-1,2,4-oxadiazole], the IC50 was found to be 192 nM. Also, the remaining activity at 30 µM (% Glu max at 30 μM) was 3%.
With `Cc1nc(-c2n[nH]c(-c3ccc(F)cn3)n2)cc(-c2cncc(F)c2)c1F` [Compound 96, 3′,5-difluoro-6′-(5-(5-fluoropyridin-2-yl)-1H-1,2,4-triazol-3-yl)-2′-methyl-3,4′-bipyridine], the 50% inhibitory concentration (IC50) is 64 nM. Moreover, the remaining activity at 30 µM (% Glu max at 30 μM) was 2%.
As for `Cc1ccncc1-c1cc(-c2noc(-c3cnccn3)n2)nc(C)c1F` [Compound 94, 3-(5′-fluoro-4,6′-dimethyl-[3,4′-bipyridin]-2′-yl)-5-(pyrazin-2-yl)-1,2,4-oxadiazole], the IC50 is over 10000 nM. Besides, the remaining activity at 30 µM (% Glu max at 30 μM) came out at 37%.
Consider `Cc1ccncc1-c1cc(-c2noc(-c3ccc(Cl)cn3)n2)nc(C)c1F` [Compound 26, 5-(5-chloropyridin-2-yl)-3-(5′-fluoro-4,6′-dimethyl-[3,4′-bipyridin]-2′-yl)-1,2,4-oxadiazole], for which the IC50 was 575 nM. Further, the remaining activity at 30 µM (% Glu max at 30 μM) was found to be 2%.
In the case of `Cc1nc(-c2noc(-c3ccc(F)cn3)n2)cc(-c2cc(F)cnc2Cl)c1F` [Compound 32, 3-(2-chloro-5,5′-difluoro-6′-methyl-[3,4′-bipyridin]-2′-yl)-5-(5-fluoropyridin-2-yl)-1,2,4-oxadiazole], the IC50 was found to be 359 nM. The remaining activity at 30 µM (% Glu max at 30 μM) was determined as 3%.
Regarding `Cc1cc(O[C@@H]2CCOC2)cc(-c2noc(-c3ccc(F)cn3)n2)n1` [Compound 112, (R)-5-(5-fluoropyridin-2-yl)-3-(6-methyl-4-((tetrahydrofuran-3-yl)oxy)pyridin-2-yl)-1,2,4-oxadiazole], the IC50 was over 10000 nM. Further, the remaining activity at 30 µM (% Glu max at 30 μM) was found to be 21%.
Regarding `Cc1nc(-c2noc(-c3ccc(F)cn3)n2)cc(-c2cncc(C#N)c2)c1F` [Compound 68, 3′-fluoro-6′-(5-(5-fluoropyridin-2-yl)-1,2,4-oxadiazol-3-yl)-2′-methyl-[3,4′-bipyridine]-5-carbonitrile], the half-inhibitory concentration (IC50) is 757 nM. In addition, the remaining activity at 30 µM (% Glu max at 30 μM) is 3%.
As for `Cc1csc(-c2noc(-c3cc(-c4cnccc4C)c(F)c(C)n3)n2)n1` [Compound 105, 5-(5′-fluoro-4,6′-dimethyl-[3,4′-bipyridin]-2′-yl)-3-(4-methylthiazol-2-yl)-1,2,4-oxadiazole], the IC50 is over 10000 nM. Where the note is “% Glu max at 30 μM”, the remaining activity at 30 µM came to 13%.
